From patent publication US20240270821A1, “GIP/GLP1/GCG TRI-RECEPTOR AGONISTS AND USES THEREOF” (priority 2023, published 2024)
Like-named read-outs stand apart in the source and are kept apart here. Starred links: 1 amine or outer side, 2 acyl side, 3 side chain; linkers in the order of their positions; H or OH if unused. Non-standard residues stand in square brackets, D forms with d. Groups on a side chain read outwards from the residue. No end group written: not given here. *: point of attachment. C20 diacid = O=C(O)CCCCCCCCCCCCCCCCCCC(=O)*; C18 diacid = O=C(O)CCCCCCCCCCCCCCCCC(=O)*; αMePhe(2-F) = C[C@](N)(Cc1ccccc1F)C(=O)O; γGlu = O=C(O)[C@H](CCC(=O)[*:2])N[*:1]; αMe4Pal = C[C@](N)(Cc1ccncc1)C(=O)O; αMeY = C[C@](N)(Cc1ccc(O)cc1)C(=O)O; αMeF = C[C@](N)(Cc1ccccc1)C(=O)O; 4Pal = N[C@@H](Cc1ccncc1)C(=O)O; αMeL = CC(C)C[C@](C)(N)C(=O)O; αMeS = C[C@](N)(CO)C(=O)O; Iva = CC[C@](C)(N)C(=O)O; Orn = NCCC[C@H](N)C(=O)O; AEEA = NCCOCCOCC(=O)O; Aib = CC(C)(N)C(=O)O

Key:
Assay type in all cases: cell-based
hGIPR [1] = target: T1, hGIPR (Homo sapiens, UniProt P48546); experiment: Functional cAMP activity in the presence of 1% HSA; settings: read-out: cAMP Rel EC50, hGIPR
T1 sequence (P48546 22-466): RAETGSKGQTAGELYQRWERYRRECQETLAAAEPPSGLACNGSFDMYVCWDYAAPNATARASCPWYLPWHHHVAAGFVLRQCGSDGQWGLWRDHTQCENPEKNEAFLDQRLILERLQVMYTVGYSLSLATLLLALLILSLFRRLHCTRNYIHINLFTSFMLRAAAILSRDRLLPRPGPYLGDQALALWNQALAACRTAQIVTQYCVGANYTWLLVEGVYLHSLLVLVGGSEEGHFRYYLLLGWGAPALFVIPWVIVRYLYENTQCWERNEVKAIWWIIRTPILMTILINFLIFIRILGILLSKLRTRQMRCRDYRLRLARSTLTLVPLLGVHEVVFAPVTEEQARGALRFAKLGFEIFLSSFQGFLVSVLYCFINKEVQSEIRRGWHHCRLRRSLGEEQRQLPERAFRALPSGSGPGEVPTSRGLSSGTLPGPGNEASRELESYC

hGLP-1R [2] = target: T2, hGLP-1R (Homo sapiens, UniProt P43220); experiment: Functional cAMP activity in the presence of 1% HSA; settings: read-out: cAMP Rel EC50, hGLP-1R
human GcgR = human GcgR (Homo sapiens, UniProt P47871); experiment: Functional cAMP activity in the presence of 1% HSA; settings: read-out: cAMP Rel EC50, hGcgR
hGIPR [3] = target: T1, hGIPR; experiment: Functional cAMP activation in the presence of 0.1% casein (no HSA); settings: read-out: Relative cAMP EC50, hGIPR;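 on Relative cAMP EC50, hGIPR: intracellular cAMP rise after 30 min at 37 °C read by HTRF against a standard curve, scaled between buffer alone (0%) and top control ligand concentration (100%), four-parameter fit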;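 on Relative cAMP EC50, hGLP-1R: intracellular cAMP rise after 30 min at 37 °C read by HTRF, normalized between buffer only (0%) and maximal control ligand (100%), four-parameter variable-slope fit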;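 on Relative cAMP EC50, hGcgR: intracellular cAMP rise after 30 min at 37 °C, read by HTRF against a cAMP standard curve, scaled from buffer only (0%) to maximal control ligand response (100%)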
hGLP-1R [4] = target: T2, hGLP-1R; experiment: as above; settings: read-out: Relative cAMP EC50, hGLP-1R
hGcgR = hGcgR (Homo sapiens, UniProt P47871); experiment: as above; settings: read-out: Relative cAMP EC50, hGcgR;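 further: intracellular cAMP rise after 30 min at 37 °C, read by HTRF against a cAMP standard curve, scaled from buffer only (0%) to maximal control ligand response (100%)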
[5] = in the presence of 0.1% casein (no HSA), geometric mean

human GcgR, sequence (P47871 26-477): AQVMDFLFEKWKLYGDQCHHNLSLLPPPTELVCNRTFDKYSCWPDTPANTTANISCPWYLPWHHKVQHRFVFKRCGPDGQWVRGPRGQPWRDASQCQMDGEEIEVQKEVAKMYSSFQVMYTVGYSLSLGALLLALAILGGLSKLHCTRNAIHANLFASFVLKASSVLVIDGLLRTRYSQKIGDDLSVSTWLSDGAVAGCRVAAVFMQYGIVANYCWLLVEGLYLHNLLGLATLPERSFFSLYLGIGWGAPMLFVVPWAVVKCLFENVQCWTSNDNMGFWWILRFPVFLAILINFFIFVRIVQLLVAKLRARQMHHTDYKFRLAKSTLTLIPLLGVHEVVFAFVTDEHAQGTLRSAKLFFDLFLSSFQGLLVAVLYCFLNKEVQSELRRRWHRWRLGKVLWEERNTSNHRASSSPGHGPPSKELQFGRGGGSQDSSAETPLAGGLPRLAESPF
hGcgR, sequence (P47871 26-477): as above
T2 sequence (P43220 24-463): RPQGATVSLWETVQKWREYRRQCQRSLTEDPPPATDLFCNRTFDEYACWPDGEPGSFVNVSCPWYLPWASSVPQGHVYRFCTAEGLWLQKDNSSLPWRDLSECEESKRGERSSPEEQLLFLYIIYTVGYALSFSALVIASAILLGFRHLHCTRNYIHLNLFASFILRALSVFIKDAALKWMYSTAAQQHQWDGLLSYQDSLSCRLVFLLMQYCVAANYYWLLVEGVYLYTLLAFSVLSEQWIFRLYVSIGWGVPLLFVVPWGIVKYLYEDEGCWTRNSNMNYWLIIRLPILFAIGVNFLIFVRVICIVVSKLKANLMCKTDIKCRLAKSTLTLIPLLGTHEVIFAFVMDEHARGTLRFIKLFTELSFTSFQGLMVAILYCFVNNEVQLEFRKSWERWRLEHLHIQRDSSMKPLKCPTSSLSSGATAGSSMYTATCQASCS

Substance “Y[Aib]QGTFTSD[4Pal]S[Orn][αMeL]LDKK([γGlu-γGlu-C18 diacid])AQ[αMe4Pal]AFIE[αMe4Pal]LIE[Aib]GPSSGEPPPSGS-NH2 [Example 989]” has an EC50 (hGIPR [1]) of 8 nM, an EC50 (hGLP-1R [2]) of 402 nM and an EC50 (human GcgR) of 247 nM. It also gave an EC50 (hGIPR [3]; [5]) of 0.103 nM, an EC50 (hGLP-1R [4]; [5]) of 3.92 nM and an EC50 (hGcgR; [5]) of 2.27 nM.

In the case of “Y[Aib]QGTFTSD[4Pal]S[Orn][αMeL]LD[Orn]K([AEEA-γGlu-C18 diacid])AQ[Aib]AFIE[αMeY]LLEGGPSSGAPPPSGS-NH2 [Example 933]”, the EC50 (hGIPR [1]) is reported as 35.1 nM, the EC50 (hGLP-1R [2]) is reported as 557 nM and the EC50 (human GcgR) is reported as 1530 nM. It also gave an EC50 (hGIPR [3]; [5]) of 0.259 nM, an EC50 (hGLP-1R [4]; [5]) of 2.32 nM and an EC50 (hGcgR; [5]) of 5.51 nM.

In the case of “Y[Aib]QGTFTSD[4Pal]S[Orn][αMeL]LD[Orn]K([γGlu-γGlu-C18 diacid])AQ[αMe4Pal]AFIEYLIAGGPSSGAPPPSGSE-NH2 [Example 1011]”, the EC50 (hGIPR [1]) is reported as 13.5 nM, the EC50 (hGLP-1R [2]) is reported as 148 nM and the EC50 (human GcgR) is reported as 459 nM. The EC50 (hGIPR [3]; [5]) was 0.21 nM, the EC50 (hGLP-1R [4]; [5]) was 2.13 nM and the EC50 (hGcgR; [5]) was 5.27 nM.

“Y[Aib]QGTFTSD[4Pal]S[Orn][αMeL]LD[Orn]K([γGlu-γGlu-C18 diacid])AQ[αMe4Pal]QFIE[αMeY]LIEGGPSSGAPPPSGSEE-NH2 [Example 972]” gave an EC50 (hGIPR [1]) of 30.4 nM, an EC50 (hGLP-1R [2]) of 327 nM and an EC50 (human GcgR) of 660 nM. For the same substance, the EC50 (hGIPR [3]; [5]) was 0.34 nM, the EC50 (hGLP-1R [4]; [5]) was 2.05 nM and the EC50 (hGcgR; [5]) was 4.19 nM.

For “Y[Aib]QGTFTSD[4Pal][αMeS]Q[αMeL]LD[Orn]K([dE-γGlu-C18 diacid])AQ[Iva]QFIQ[αMeY]LLE[Aib]GPSSGAPPPSGGGE-NH2 [Example 1139]”, the EC50 (hGIPR [1]) was 2.87 nM, the EC50 (hGLP-1R [2]) was 155 nM and the EC50 (human GcgR) was 269 nM. The EC50 (hGIPR [3]; [5]) was 0.0431 nM, the EC50 (hGLP-1R [4]; [5]) was 1.85 nM and the EC50 (hGcgR; [5]) was 5.29 nM.

“Y[Aib]QGTFTSD[4Pal][αMeS]Q[αMeL]LD[Orn]K([dE-γGlu-C18 diacid])AQ[αMe4Pal]QFIQ[αMeY]LIEGGPSSGEPPPSGGGE-NH2 [Example 1188]” showed an EC50 (hGIPR [1]) of 7.02 nM, an EC50 (hGLP-1R [2]) of 77.1 nM and an EC50 (human GcgR) of 130 nM. The EC50 (hGIPR [3]; [5]) was 0.0914 nM, the EC50 (hGLP-1R [4]; [5]) was 1.01 nM and the EC50 (hGcgR; [5]) was 1.16 nM.

“Y[Aib]QGT[αMeF]TSD[4Pal][αMeS]I[αMeL]LD[Orn]K([AEEA-γGlu-C18 diacid])AQ[αMe4Pal]EFI[dE][αMeY]LIEGGPSSGAPPPSGGGE-NH2 [Example 1168]” gave an EC50 (hGIPR [1]) of 0.999 nM, an EC50 (hGLP-1R [2]) of 65.4 nM and an EC50 (human GcgR) of 364 nM. It also gave an EC50 (hGIPR [3]; [5]) of 0.00839 nM, an EC50 (hGLP-1R [4]; [5]) of 0.422 nM and an EC50 (hGcgR; [5]) of 2.63 nM.

Substance “Y[Aib]QGT[αMeF]TSD[4Pal][αMeS]I[αMeL]LD[Orn]K([AEEA-γGlu-C18 diacid])AQ[αMe4Pal]EFI[dE][αMeY]LIEGGPSSGEPPPSGE-NH2 [Example 1165]” has an EC50 (hGIPR [1]) of 1.36 nM, an EC50 (hGLP-1R [2]) of 87.7 nM and an EC50 (human GcgR) of 358 nM. For the same substance, the EC50 (hGIPR [3]; [5]) was 0.0121 nM, the EC50 (hGLP-1R [4]; [5]) was 0.632 nM and the EC50 (hGcgR; [5]) was 2.68 nM.

“Y[Aib]QGT[αMeF]TSD[4Pal][αMeS]I[αMeL]LD[Orn]K([AEEA-γGlu-C18 diacid])AQ[αMe4Pal]EFI[dE][αMeY]LIEGGPSSGEPPPSGGGE-NH2 [Example 1169]” was tested, and the EC50 (hGIPR [1]) was 1.18 nM, the EC50 (hGLP-1R [2]) was 80 nM and the EC50 (human GcgR) was 304 nM. For the same substance, the EC50 (hGIPR [3]; [5]) was 0.011 nM, the EC50 (hGLP-1R [4]; [5]) was 0.613 nM and the EC50 (hGcgR; [5]) was 2.43 nM.

In the case of “Y[Aib]QGT[αMeF]TSD[4Pal][αMeS]I[αMeL]LD[Orn]K([γGlu-γGlu-C18 diacid])AQ[αMe4Pal]EFI[dE][αMeY]LIEGGPSSGAPPPSGGGE-NH2 [Example 1174]”, the EC50 (hGIPR [1]) is reported as 0.707 nM, the EC50 (hGLP-1R [2]) is reported as 60.2 nM and the EC50 (human GcgR) is reported as 347 nM. For the same substance, the EC50 (hGIPR [3]; [5]) was 0.00896 nM, the EC50 (hGLP-1R [4]; [5]) was 0.454 nM and the EC50 (hGcgR; [5]) was 2.58 nM.

In the case of “Y[Aib]QGT[αMePhe(2-F)]TSDYSILLDAQAAK([AEEA-γGlu-C20 diacid])EFIEYLIEGGPSSGEPPPSEG-NH2 [Example 351]”, the EC50 (hGIPR [1]) is reported as 57.5 nM, the EC50 (hGLP-1R [2]) is reported as 272 nM and the EC50 (human GcgR) is reported as 2470 nM. The EC50 (hGIPR [3]; [5]) was 0.243 nM, the EC50 (hGLP-1R [4]; [5]) was 0.679 nM and the EC50 (hGcgR; [5]) was 12.1 nM.

For “Y[Aib]QGT[αMePhe(2-F)]TSDYSILLDKK([γGlu-γGlu-C18 diacid])AQ[Aib]AFIEYLEEGGPSSGAPPPSGE-NH2 [Example 435]”, the EC50 (hGIPR [1]) was 10.3 nM, the EC50 (hGLP-1R [2]) was 33.6 nM and the EC50 (human GcgR) was 334 nM. For the same substance, the EC50 (hGIPR [3]) was 0.0239 nM, the EC50 (hGLP-1R [4]) was 0.311 nM and the EC50 (hGcgR) was 3.01 nM.

With “Y[Aib]QGT[αMePhe(2-F)]TSDYSILLDKQAAK([AEEA-γGlu-C20 diacid])EFIEYLIEGGPSSGAPPPSEG-NH2 [Example 340]” the EC50 (hGIPR [1]) was 60.4 nM, the EC50 (hGLP-1R [2]) was 246 nM and the EC50 (human GcgR) was 647 nM. It also gave an EC50 (hGIPR [3]; [5]) of 0.189 nM, an EC50 (hGLP-1R [4]; [5]) of 0.648 nM and an EC50 (hGcgR; [5]) of 2.02 nM.

“Y[Aib]QGT[αMePhe(2-F)]TSDYSKILDKIAQK([AEEA-γGlu-C20 diacid])AFIQYLIEGGPSSGEPPPSEG-NH2 [Example 354]” gave an EC50 (hGIPR [1]) of 23.8 nM, an EC50 (hGLP-1R [2]) of 175 nM and an EC50 (human GcgR) of 1440 nM. For the same substance, the EC50 (hGIPR [3]; [5]) was 0.134 nM, the EC50 (hGLP-1R [4]; [5]) was 1.21 nM and the EC50 (hGcgR; [5]) was 7.91 nM.
